From patent publication US9511112B2, “Antibacterial composition for topical use” (GENERAL TOPICS S.r.l., priority 2012, dated 2016)
Where a name gives a salt, the structure may show the parent alone.

Tested on: bacterial population
Experiment: Microbiocidal activity by the same methods, triethyl citrate alone versus composition
Type: cell-based
Settings: 4.5 w/w % in water q.s. to 100 w/w %, without the Peptide

## CCOC(=O)CC(O)(CC(=O)OCC)C(=O)OCC [triethyl citrate, triethyl-2-hydroxypropane-1,2,3-tricarboxylate]
  survival of the bacterial population: 25%
